{"source": "patent US10106818B2", "about": "“Dual-color HIV reporter system for the detection of latently-infected cells” (priority 2013, dated 2018)", "key": {"[1]": {"test_system": "latent HIV in 89mASG- and R7GEmC-infected single-positive Jurkat T cells", "assay": "Reactivation of latent HIV in sorted single-positive (latent) Jurkat T cells, FACS", "type": "cell-based, HIV-1", "conditions": "for reactivation activity (percent population in the productive gate): 89mASG and R7GEmC single-positive latent populations, 30, 10 and 3 μM; for expression of HIV promoter-dependent reporter: 89mASG and R7GEmC latent Jurkat T cells, 10 ng/ml TNFα, 5 μM prostratin or 2.5 μM SAHA alone"}, "[2]": {"test_system": "HIV RNA expression", "conditions": "recent study; cited from earlier work"}, "[3]": {"test_system": "latent HIV in sorted GFP-only 89mASG-infected Jurkat cells", "assay": "High-throughput imaging screen for latent HIV reactivation (Tocriscreen library)", "type": "cell-based, HIV-1", "conditions": "24 hr; for red signal (mApple, reactivated virus) versus negative controls: positive control wells, 10 ng/ml TNFα, 5 μM prostratin or 2.5 μM SAHA and combinations; for reactivation of latent HIV in the screen: 30 μM, total red area higher than median+2 SD of negative control wells", "source_text": "(§1) Sorted 89mASG-infected, GFP-only-positive Jurkat cells were used to test the Tocriscreen drug library for latent HIV reactivation (see Methods). (a) Dot plot showing quantification of total blue area (Hoechst 33342 signal, total cell) against total red area (mApple signal, reactivated HIV). Red dots indicate the position of untreated wells (Negative controls); the shaded area indicates the median±2SD of the red/blue area ratio for negative control wells. Green dots indicate positive control wells, treated with 10 ng/ml TNFα, 5 μM prostratin or 2.5 μM SAHA and their combinations. […] Representative FACS plots of sorted single-positive Jurkat T cells for both viruses. The productive gate contains the reactivated cells. […] (c,d) Histogram plot of percent population in the productive gate (grey) for each treatment and percentage of cells in the live gate (light blue) for sorted single-positive Jurkat T cells for 89mASG (c) and R7GEmC (d) reporters. Data shown as mean±SD for three different treatments. For each compound, a grey triangle between the histograms indicates decreasing drug concentration (30, 10 and 3 μM). […] (e) FACS analysis of drug treatments combined with 0.5 μM SAHA, 0.5 μM prostratin and 0.5 ng/ml TNFα. Representative FACS plots of sorted GFP-only-positive Jurkat T cells for 89mASG treated with DMSO (control), SAHA (0.5 μM) alone or with terreic acid (10 μM) and dilazep (30 μM). (f) Histogram plot of percent population of the sorted cells in the productive gate for each treatment at indicated concentrations (μM)."}, "[4]": {"test_system": "latent provirus in mCherry-only R7GEmC-infected primary CD4+ T cells", "assay": "Reactivation of sorted mCherry-only (latent) primary CD4+ T cells infected with R7GEmC", "type": "cell-based, HIV-1", "conditions": "for response of mCherry-only positive cells to treatment: three pooled donors, 1 μM prostratin, 1 μM SAHA", "experimental": "HEK293T, Jurkat, A301 and SupT1 cell lines were obtained from ATCC. Suspension cells were cultured in RPMI 1640 supplemented with 10% FBS, 100 U/ml penicillin, […] streptomycin and 2 mM L-glutamine (PSG) (37° C., 5% CO2). Peripheral blood from healthy human donors was obtained from the Stanford Blood Center and processed the day of collection. CD4^+ T cells were isolated with RosetteSep Human CD4^+ T-Cell Enrichment Cocktail (Stem Cell Technologies) and cultured in human cell medium (HCM, RPMI, 10% human AB pooled serum, PSG). Resting CD4^+ T cells were activated in U-bottom 96-well TC plates with 25 μl human anti-CD3 and anti-CD28-coated dynabeads/10^6 cells (48 h). Dynabeads were removed by magnetic separation and cells seeded in HCM with 30 IU/ml rhIL-2. Cell lines and activated CD4^+ cells were infected by spinoculation (Lassen et al., PLoS One. 2012; 7(1):e30176, which is hereby incorporated by reference in its entirety) with a virus amount equivalent to 20 ng p24 or as indicated. Viral infection was assessed by fluorescence activated cell sorting (FACS) analysis after 72 h. At 5 days post-infection, cells were sorted to separate negative, single- or double-positive cells. Sorted cell lines were treated after re-expansion for 5-15 days. Cells were seeded in 96-well U plates and treated for 24 h before analysis. […]\nThe extent to which mCherry-only-positive populations could be reactivated by further stimulation was next evaluated. […]\n(a) FACS analysis of activated CD4^+ T cells from two human donors (#1, #2) infected with R7GEmC at indicated virus amounts. (b) Fluorescence microscopy image of infected CD4^+ T cells showing mCherry-positive (latent, red) and GFP-positive (active, green) cells. (c) qPCR quantification of proviral DNA in the sorted populations, using primer-probe combinations for the HIV-1 gag gene and the RNAseP gene for normalization. […] (d) Western blot quantification of HIV gag and cell α-actin in sorted CD4^+ T cell populations from pooled donors. […]"}, "[5]": {"test_system": "latent HIV in sorted latent-cell populations (GFP-only-positive 89mASG Jurkat T cells)", "assay": "Co-treatment with low levels of SAHA, prostratin or TNFα, FACS", "type": "cell-based, HIV-1", "conditions": "24 h; for effect on HIV latency in combination with SAHA: 10 μM with low SAHA (0.5 μM); for interaction with prostratin: with low prostratin (0.5 μM)", "source_text": "Thus, it might be of interest to identify compounds that can potentiate HIV reactivation by SAHA or prostratin or TNFα.\nas §1"}, "[6]": {"test_system": "R7GEmC infection of activated CD4+ T cells", "assay": "Infection of activated CD4+ T cells with R7GEmC in the presence of integrase inhibitor (pre-integration latency)", "type": "cell-based, HIV-1", "conditions": "30 μM Raltegravir; after 3 days", "source_text": "HIV latency in vivo is reported to result, in part, from pre-integration latency, whereby unintegrated proviral DNA (after full retrotranscription) is maintained in a stable cytoplasmic form in a quiescent cell, and can respond to cell activation by de novo integration and productive infection. To rule out pre-integration latency, activated CD4^+ T cells were infected with R7GEmC in the presence of the HIV integrase inhibitor raltegravir (FIG. 6A).\n(a) FACS analysis of activated CD4^+ T cells from two human donors (#1, #2) infected with R7GEMC alone or with 30 μM Raltegravir (RALTE 30). (b) Analysis of sorted CD4^+ T-cell populations from donors 1 and 2, after 48 h with anti-CD3/CD28-coated Dynabeads (αCD3/28), alone, with 30 μM Raltegravir, or untreated (CTR)."}}}
{"compound": "N#C/C(=C\\c1ccc(O)c(O)c1)C(=O)NCCCc1ccccc1", "note": "[AG555, α-Cyano-(3,4-dihydroxy)-N-(3-phenylpropyl)cinnamide]", "values": [{"measurement": "reactivation activity (percent population in the productive gate)", "setting": "[1]", "value": "slight but significant reactivation activity"}]}
{"compound": "O=C1C(SCCO)=C(SCCO)C(=O)c2ccccc21", "note": "[NSC 95397]", "values": [{"measurement": "reactivation activity (percent population in the productive gate)", "setting": "[1]", "value": "clear artifacts or false positives"}]}
{"compound": "O=C(CCCCCCC(=O)Nc1ccccc1)NO", "note": "[SAHA, suberoylanilide hydroxamic acid]", "values": [{"measurement": "reactivation of HIV RNA expression in patients", "setting": "[2]", "value": "can reactivate HIV RNA expression in a subset of patients"}, {"measurement": "red signal (mApple, reactivated virus) versus negative controls", "setting": "[3]", "value": "notably higher red signal"}, {"measurement": "expression of HIV promoter-dependent reporter", "setting": "[1]", "value": "increased expression of HIV promoter-dependent reporter"}, {"measurement": "response of mCherry-only positive cells to treatment", "setting": "[4]", "value": "A subset of less-bright mCherry-only positive cells also responded"}]}
{"compound": "CN1CCc2cccc3c2[C@H]1Cc1ccc(O)c(O)c1-3", "note": "[apomorphin, apomorphine]", "values": [{"measurement": "reactivation activity (percent population in the productive gate)", "setting": "[1]", "value": "distinct effects in the two HIV clones"}]}
{"compound": "COc1cc(C(=O)OCCCN2CCCN(CCCOC(=O)c3cc(OC)c(OC)c(OC)c3)CC2)cc(OC)c1OC", "note": "[dilazep]", "values": [{"measurement": "reactivation activity (percent population in the productive gate)", "setting": "[1]", "value": "slight but significant reactivation activity"}, {"measurement": "effect on HIV latency in combination with SAHA", "setting": "[5]", "value": "strongly enhanced the effect of low SAHA concentrations"}, {"measurement": "interaction with prostratin", "setting": "[5]", "value": "synergistic with prostratin"}]}
{"compound": "O=c1c(-c2ccc(O)cc2)coc2cc(O)cc(O)c12", "note": "[genistein]", "values": [{"measurement": "reactivation of latent HIV in the screen", "setting": "[3]", "value": "reactivated latent HIV"}]}
{"compound": "CC(=O)O[C@@]12C[C@@H](C)[C@@]3(O)[C@@H](C=C(CO)C[C@]4(O)C(=O)C(C)=C[C@@H]34)[C@@H]1C2(C)C", "note": "[prostratin, (1aR,1bS,4aR,7aS,7bR,8R,9aS)-4a,7b-dihydroxy-3-(hydroxymethyl)-1,1,6,8-tetramethyl-5-oxo-1,1a,1b,4,4a,5,7a,7b,8,9-decahydro-9aH-cyclopropa[3,4]benzo[1,2-e]azulen-9a-yl]", "values": [{"measurement": "red signal (mApple, reactivated virus) versus negative controls", "setting": "[3]", "value": "notably higher red signal"}, {"measurement": "expression of HIV promoter-dependent reporter", "setting": "[1]", "value": "increased expression of HIV promoter-dependent reporter"}, {"measurement": "response of mCherry-only positive cells to treatment", "setting": "[4]", "value": "A subset of less-bright mCherry-only positive cells also responded"}]}
{"compound": "Cc1nnc(C(=O)NC(C)(C)c2nc(C(=O)NCc3ccc(F)cc3)c(O)c(=O)n2C)o1", "note": "[raltegravir]", "values": [{"measurement": "effect on viral reactivation in the mCherry-only-positive population", "setting": "[4]; 30 μM Raltegravir with anti-CD3/CD28-coated Dynabeads, 48 h", "value": "did not reduce viral reactivation"}, {"measurement": "integration-independent expression of the fluorescent proteins", "setting": "[6]", "value": "no integration-independent expression of the fluorescent proteins"}]}
{"compound": "Oc1ccc(C=Cc2cc(O)cc(O)c2)cc1", "note": "[resveratrol]", "values": [{"measurement": "reactivation of latent HIV in the screen", "setting": "[3]", "value": "reactivated latent HIV"}]}
{"compound": "CC1=C(O)C(=O)[C@@H]2O[C@@H]2C1=O", "note": "[terreic acid, (−)-terreic acid]", "values": [{"measurement": "reactivation activity (percent population in the productive gate)", "setting": "[1]", "value": "slight but significant reactivation activity"}, {"measurement": "effect on HIV latency in combination with SAHA", "setting": "[5]", "value": "strongly enhanced the effect of low SAHA concentrations"}, {"measurement": "interaction with TNFα", "setting": "[5]; with low TNFα (0.5 ng/ml)", "value": "synergistic interaction in most combinations except terreic acid"}, {"measurement": "interaction with prostratin", "setting": "[5]", "value": "synergistic with prostratin"}]}
{"compound": "TNF-α", "values": [{"measurement": "red signal (mApple, reactivated virus) versus negative controls", "setting": "[3]", "value": "notably higher red signal"}, {"measurement": "expression of HIV promoter-dependent reporter", "setting": "[1]", "value": "increased expression of HIV promoter-dependent reporter"}]}
